Biological target: GSK-3β (Homo sapiens, UniProt P49841)
Experiment: ADP-Glo kinase assay with Promega GSK-3β enzyme
Assay type: biochemical

Sequence of GSK-3β (P49841 whole entry): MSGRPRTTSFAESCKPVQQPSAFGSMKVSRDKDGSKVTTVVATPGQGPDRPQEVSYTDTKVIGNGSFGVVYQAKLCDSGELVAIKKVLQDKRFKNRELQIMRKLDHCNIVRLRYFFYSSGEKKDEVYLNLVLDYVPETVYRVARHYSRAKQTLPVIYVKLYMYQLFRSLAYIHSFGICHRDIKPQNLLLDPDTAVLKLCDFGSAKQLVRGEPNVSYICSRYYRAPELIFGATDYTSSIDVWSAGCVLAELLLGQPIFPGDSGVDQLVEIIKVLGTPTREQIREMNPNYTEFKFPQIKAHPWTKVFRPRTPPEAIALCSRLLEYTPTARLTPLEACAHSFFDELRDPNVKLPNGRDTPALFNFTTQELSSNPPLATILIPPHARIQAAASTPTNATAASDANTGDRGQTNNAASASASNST

IC50: 59.8 µM
SMILES: COc1ccc(Cn2cc(CN3C(=O)C(=NNc4ccccc4)c4ccccc43)nn2)cc1 [6Ec, 1-((1-(4-Methoxybenzyl)-1H-1,2,3-triazol-4-yl)methyl)-3-(2-phenylhydrazono) indolin-2-one]

— paper PMC12257299 (RSC Advances, 2025)
